Patent US11078496B2, “System for F-box hormone receptor regulated protein expression in mammalian cells” (ICAHN SCHOOL OF MEDICINE AT MOUNT SINAI, priority 2016, dated 2021)

Assays:
human ESCs [1] = experiment: Proliferation of H9 ESCs under coronatine (growth curves); format: cell-based; details: H9 cells expressing pJAZ NLS-GFP-OsJAZ^33, 50 μM coronatine vs 0.1% DMSO, counted daily
Text: FIG. 10A is a sequence alignment of O. sativa coronatine-degradable proteins (Tan et al., “Mechanism of Auxin Perception by the TIR1 Ubiquitin Ligase,” Nature 446:640-645 (2007), which is hereby incorporated by reference in its entirety) OsJAZ1 (NP_001064513.1; SEQ ID NO: 4), OsJAZ2 (NP_001049167.1; SEQ ID NO: 5), OsJAZ7 (NP_001063273.1; SEQ ID NO: 6), OsJAZ3 (NP_001049166.1; SEQ ID NO: 7), and A. thaliana AtJAZ1 (NP_564075; SEQ ID NO: 8). Degron sequences used in this study are highlighted and degron names indicated on the right. […] GFP level was analyzed by flow cytometry and % degradation was calculated as described in the Methods. […] FIG. 10F show GFP fluorescence histograms derived from flow cytometric analysis of HEK-293T cells infected with the indicated pJAZ versions, selected and treated with either 0.1% DMSO (“Con”) or 50 μM coronatine (“Cor”). Parental HEK-293T cells were analyzed as a control for background autofluorescence. […] FIG. 10H show the relative median fluorescence of HEK-293T cells infected with pJAZ 7 harboring either GFP-OsJAZ^33 or NLS-GFP-OsJAZ^33. Cells were selected and treated with increasing concentrations of coronatine (“Cor”) and analyzed after 24 hours (left panel), or with 50 μM coronatine for the indicated time periods (right panel). GFP fluorescence was analyzed by flow cytometry. […] Cells were counted daily and growth curves are plotted in FIG. 10K. […]

human ESCs [2] = experiment: mRNA-Seq of H9 hESCs treated with coronatine; format: cell-based; details: H9 cells, 50 μM coronatine, 2 days

CC[C@H]1C=C(C(=O)N[C@@]2(C(=O)O)C[C@@H]2CC)[C@H]2CCC(=O)[C@H]2C1 [coronatine, Coronatine]
effect on proliferation (human ESCs [1]): does not affect proliferation | effect on global gene expression patterns (human ESCs [2]; mRNA-Seq): does not affect global gene expression patterns | genes with differential expression between coronatine and control samples (human ESCs [2]; P<0.05 and fold change >2 in both replicates): only two genes
